SMILES	melting point [°C]
COC(=O)c1cc(OP(=S)(OC)OC)c(C(=O)OC)s1	71
CCCCCCCCCCCCCCC[C@H]1O[C@@H]1CO	77 to 78
O=C(NC1CC1)c1cccc2c1CC(NC1CC1)CO2 (centres undefined)	126 to 127
CO[C@H]1CCN(C(=O)c2cc(-c3ccccc3)c(=O)n3c2-c2sccc2C3)C1	159 to 162
CNc1ncnc(N)c1N	180 to 185
C=CCNC(=NC#N)NCC=C	66.5 to 67
Nc1ccc(CCC(=O)N(c2ccccc2)c2ccccc2)cc1N	122 to 123
COc1cc(Nc2c(C#N)cnc3cc(C#CCN(C)C)sc23)c(Cl)cc1Cl	164 to 166
CN1CC[C@]2(c3cccc(O)c3)CC=CC[C@@H]2C1 (relative stereo)	159
CCNc1cc(-c2c[nH]c(C)n2)ccn1	214 to 216
Cc1cccc(N2CCN(CCc3c(C)nc4cc(C)ccn4c3=O)CC2)c1	96 to 97
O=C(O)c1cn(-c2ccc(F)cc2)c2c(F)c(N3Cc4ccc(F)cc4C3)c(F)cc2c1=O	> 300
CC1(Cc2ccc3c(c2)OCCO3)CN(C(c2ccccc2)c2ccccc2)CCN1 (centres undefined)	144
O=C(O)CCCCNc1ccccc1-c1ccccc1	73 to 75
CCNC1CN(c2c(F)cc3c(=O)c(C(=O)O)cn(C4CC4)c3c2F)C1	222 to 227
CC(=O)n1c(=O)n(CCN2CCC(C(=O)c3ccc(F)cc3)CC2)c(=O)c2ccsc21	137 to 141
CCC12CCC3C4CCC(=O)C=C4C(Cl)CC3C1C(OC(C)=O)CC2=O (centres undefined)	115
O=C1CCC(N2C(=O)c3cccc(NCC(=O)NC4CC4)c3C2=O)C(=O)N1 (centres undefined)	240 to 242
O=C(C=Cc1ccc(Cl)cc1)C=Cc1ccc(Cl)cc1	187 to 189
Nc1c(Cl)cc(I)cc1Cl	100 to 102
O=C1COc2ccccc2CN1Cc1ccccc1	95 to 97
CC1(C)CCC(C)(C)c2cc(Br)c(O)cc21	90 to 94
OC/C=C/c1ccc(O)cc1	116 to 118
CS(=O)(=O)c1cccc(S(N)(=O)=O)c1	99.5 to 101
N#Cc1cccc(NC(=O)NC2N=C(c3ccccc3F)c3ccccc3N(CC(=O)N3CC4CCC(CC4)C3)C2=O)c1 (racemic)	188 to 195
Cc1ccc(C(=O)O)cc1OCc1ccccc1	159 to 161
CCOC(=O)C1(C)Cc2cc(Cl)cc([N+](=O)[O-])c2O1 (centres undefined)	69 to 72.5
CN(C)c1nccc(-c2cccnc2)n1	230 to 241

SMILES	melting point [°C]
COc1ccc(-c2nccn2N=Cc2ccccc2)cc1	155
OC(CN1CCN(c2ccncc2)CC1)c1ccc2nonc2c1 (centres undefined)	159 to 162
O=C1CCN(c2ccccc2)N1CN1C(=O)c2ccccc2S1(=O)=O	209 to 213
O=C(O)c1cccc(-c2ncn(-c3ccc(N4CCCC4)cc3)n2)c1	263 to 265
C=CCOc1ccc(CC(=O)O)cc1	61 to 62
O=C1CCC(=O)N1c1ncccn1	148 to 150
COC(=O)c1cc(NC(=N)N)c(NC(C)=O)c(Br)c1O	238 to 240
CCCC1(C(=O)NCCN2CCC(N3Cc4ccccc4C3=O)CC2)c2ccccc2-c2ccccc21	219 to 221
Cc1cc(O)c(S(=O)(=O)CC(C)C)c(=O)o1	90 to 91
CCNc1ccc(C(C)=O)cc1S(N)(=O)=O	201 to 204
CC(=O)C1CCC2C3CCC4=CC(=O)C=CC4(C)C3CCC12C (centres undefined)	183 to 185
Cn1nc(-c2ccccc2)nc1-c1ccccn1	106 to 108
COCOc1ccccc1C=CC(=O)O	133 to 134
COc1ccccc1C=CC=CC(=O)c1cc(OC)c(OC)c(OC)c1	111
N[C@@H](Cc1ccccc1C(F)(F)F)[C@H](O)c1ccc(F)cc1 (racemic)	57 to 58
CC1(Cn2nc(-c3ccc(Br)cc3)oc2=O)Cn2cc([N+](=O)[O-])nc2O1 (centres undefined)	231 to 233
O=C1CC(c2ccccc2)Cc2[nH]ccc21 (centres undefined)	187 to 189
C[Si](C)(C)N1Cc2ccccc2P1(=O)c1ccccc1 (centres undefined)	90 to 94
O=c1oc(Cc2ccc(Oc3ccccc3)cc2)nn1-c1ccccc1Cl	85
CCN(CC)C(=S)Oc1cccnc1F	52 to 54
c1ccc2c(c1)ncc1nc(C3CCCCCC3)[nH]c12	225 to 226
CCCCCCCCCCCCC(O)CNCCCCCCNCC(O)CCCCCCCCCCCC (centres undefined)	118 to 121
FC(F)c1nc2ccccc2n1-c1nc(NCc2ccccn2)nc(N2CCOCC2)n1	192 to 193
CS(=O)(=O)Nc1cc([C@@H](O)CNC2CCN(c3ccc(S(=O)(=O)N4CCC[C@@H]4C(=O)OCc4ccccc4)cc3)CC2)ccc1O	62 to 69
Cc1c(C(=O)CC(C)C)cc2c(c1C)OC(C(=O)O)C2 (centres undefined)	117
CCCCCCCCCCCC(=O)OC1CC(c2ccccc2)NC(c2ccccc2)C1 (centres undefined)	40 to 42
O=C(O)/C=C/c1cncc(OCc2ccccc2)c1	140

The next lines start with the values.

melting point [°C]	SMILES
96	Cc1cc(-n2ccnc2)c2cccc(OCc3c(Cl)ccc(S(=O)(=O)N4CCC[C@H]4C(=O)NCC4CCN(CCOCCO)CC4)c3Cl)c2n1
> 260	Cc1cc(=O)n(-c2cc3c(cc2F)sc(=O)n3CC(N)=O)c(=O)n1C
> 260	Cc1nc2c(s1)C(=O)c1ccccc1C2=O
106 to 107	COc1ccc(C(=O)C2=C(c3ccccc3)CCc3ccccc32)cc1
132 to 134	C=C(COc1ccc(C(=O)CCC(=O)O)cc1F)COc1ccc(C(C)=O)c(O)c1CCC
161 to 163	CC(C)[C@H](N)C(=O)OCc1nc2c(N)nc3ccccc3c2n1CCCCNS(C)(=O)=O
147 to 149	COc1cc(NC(=O)Nc2ccccc2)c(O)c(C(C)(C)C)c1
126 to 128	O=C(CN1CCC(Cc2ccccc2)CC1)Nc1ccc([N+](=O)[O-])cc1
259 to 263	O=C1CCCC(=O)N1c1cc(Cc2n[nH]c(=O)c3ccccc23)ccc1F
156 to 157	CCc1c(Sc2cc(C)cc(C)c2)n(CC2=CC(CO)C(CO)C2)c(=O)[nH]c1=O (centres undefined)
212 to 215	Cc1cccc(NC(=O)N(C)Cc2cccc3c2C(=O)N(C2CCC(=O)NC2=O)C3=O)c1 (centres undefined)
254 to 257	O=C(O)c1ccc(-c2ccc3nnn(Cc4ccc5ncccc5c4)c3n2)cc1F
114 to 116	C=CCNC(=O)c1cnc2c(OC)cccc2c1Cl
197 to 198	CCOP(=O)(Cc1ccc(NC(=O)c2sc(SC)c3c2CCc2nc(C)oc2-3)cc1)OCC
210	O=C(Cc1cccs1)Nc1n[nH]c2cc(Cl)ccc12
186 to 187	CCOc1nc2cccc(C(=O)OC)c2n1Cc1ccc(-c2ccccc2-c2nc(=O)o[nH]2)cc1
> 300	CCn1c(=O)c2[nH]c(/C=C/c3ccc4c(c3)OCCO4)nc2n(CC)c1=O
223 to 225	CC(=O)CC(C)(C)Cn1c(C)nc2c(N)nc3ccccc3c21
152 to 154	COc1cccc2c1C(=O)N(CSc1ccccc1)S2(=O)=O
315 to 318	Cc1cc(O)ccc1N1CCc2c(C)nc3ccccc3c21
230 to 231	CCON1CCC2(CC1)NC(=O)C(c1c(C)cc(C)cc1C)=C2OC(=O)C(C)(C)C
98 to 100	CCOC(=O)C=N[C@@H]1c2cc(C#N)ccc2OC(C)(C)[C@H]1O (relative stereo)

melting point [°C]	SMILES
236 to 240	CCOC(=O)c1cnc2c(-c3ccc(Cc4cccc(OC)c4)cc3)cnn2c1O
230 to 232	CCOC(=O)CN1CCN(c2cc3c(cc2Cl)c(=O)c(C(=O)O)cn3CC)CC1
146 to 147	CCCNC(=O)CCn1ccc(=O)c(OCc2ccccc2)c1C
168 to 173	CCN(CC)c1ccc(-c2nc3ccc(OC(F)(F)F)cc3[nH]2)cc1
237 to 240	Cc1cc(C(N)=O)ncc1C(c1c(F)ccc(F)c1F)S(=O)(=O)c1ccc2ccoc2c1 (centres undefined)
229 to 231	O=C(O)c1cc(NCCCc2ccc([N+](=O)[O-])cc2)ccc1O
177 to 178	COc1cccc(CNC(=O)c2nc3scc(-c4ccccc4)c3c(=O)[nH]2)c1
98 to 99	O=[N+]([O-])c1cn2c(n1)OC[C@@H](OCc1ccc(-c3nc4cc(OC(F)(F)F)ccc4[nH]3)cc1)C2
178 to 180	Cc1nc2c(N)nc3ccc(OCc4ccccc4)cc3c2n1CCCCNC(=O)N1CCOCC1
146 to 147	O=C(NC(CCl)c1ccc(-c2ccc(SC(F)F)cc2)cc1)c1c(F)cccc1F (centres undefined)
214 to 215	O=C(Nc1ccc2nc(CN3CCOCC3)ccc2c1)c1ccc(-c2ccccc2)cc1
169 to 170	NC(=O)c1cc(-c2cccc3cc(Cc4cc(F)cc(Cl)c4)sc23)ccc1F
192 to 193	CCCn1nc2c(N)nc3ccccc3c2c1CCCc1cc(-c2cccnc2)no1
252 to 254	COc1cc(OC)c2c(=O)[nH]c(-c3ccc(N4CCN(C)CC4)cc3)nc2c1
50 to 53	C=CCCCCCCOc1ccc(C(CC(C(=O)OCC)C(=O)OCC)NC(C)=O)cc1 (centres undefined)
214 to 217	Cc1c(NC(=O)CC(C)(C)C)c(C)c2c(c1-c1ccco1)OC[C@@H]2c1ccc(C(C)C)cc1
155 to 157	CCOC(=O)c1c(O)c2ccc(C)nc2n(Cc2ccccc2)c1=O
170 to 172	COc1ccc2cc(Oc3cnc(N)nc3N)c(C(C)C)cc2c1
183 to 184	CCC(CC)N(O)C(=O)Nc1ccc(-c2ccccc2)cc1
202 to 205	O=C(Cc1c(-c2cccnc2)c2cc(CN3CCN(c4ccccc4)CC3)c(Cl)cc2oc1=O)Nc1ccc(F)cc1C(F)(F)F
182 to 185	CN1CCN(Cc2ccc(NC(=O)C#Cc3ccc(-c4ccc(Cl)cc4)cc3)cc2)CC1
234 to 235	CC(C)(C)OC(=O)N1CCN(CCc2ccc(Nc3ncc4c(n3)-c3ccccc3C(c3ccccc3C(F)(F)F)C4)cc2)CC1 (centres undefined)
